Measurements reported in patent US20240342137A1 (priority 2023, published 2024).
≈ marks a conversion by molar mass, not a printed value. Like-named read-outs stand apart in the source and are kept apart here.

Key:
alpha-1 adrenoceptors = conditions: cited from earlier work
alpha-2 adrenoceptors = molecular target: T1, alpha-2 adrenoceptors; conditions: cited from earlier work; for IC50: read-out: half-maximal inhibitory concentration
T1 construct: rows headed: Alpha-2 Ki; other: [3H]clonidine displacement, brain membrane; other: alpha-2; lower sensitivity compared to atipamezole; other: alpha-2, vs atipamezole

physchem = conditions: water
[1] = format: physicochemical; conditions: pH 6
[2] = test system: other adrenergic, opioid or GABA (Gamma-AminoButyric Acid class) sedative and analgesic agents; conditions: cited from earlier work
[3] = human, in vivo, 20 mg, cited from earlier work
[4] = test system: other neurotransmitter receptors including I2 and 5-HT; conditions: cited from earlier work
[5] = human, in vivo, cited from earlier work
[6] = test system: xylazine sedative effects; conditions: in vivo; cited from earlier work
[7] = human, in vivo; cited from earlier work

For `COC(=O)[C@@H]1[C@H]2C[C@H]3c4[nH]c5ccccc5c4CCN3C[C@@H]2CC[C@@H]1O` [Yohimbine], the Ki (alpha-1 adrenoceptors) is listed as 5130 nM.

In the case of `c1ccc2c(c1)OCC(C1=NCCN1)O2` (stereo not drawn) [Idazoxan], the Ki (alpha-1 adrenoceptors) is given as 3960 nM, the Ki (alpha-2 adrenoceptors) is given as 148 nM and the IC50 (alpha-2 adrenoceptors) is given as 148 nM.

For `CCC1(c2cnc[nH]2)Cc2ccccc2C1` [Atipamezole, 4-(2-ethyl-2,3-dihydro-1H-inden-2-yl)-1H-imidazole], the solubility (physchem) is listed as ~70 µg/mL (≈ 330 µM), the “final atipamezole concentration when fully dissolved” value [1] is listed as 375.8 mM and the Ki (alpha-1 adrenoceptors) is listed as 13300 nM. The “effect on other adrenergic, opioid or GABA sedative and analgesic agents” value [2] was “No effect on other adrenergic, opioid or GABA (Gamma-AminoButyric”, the AUC [3] was 85 ng·h/mL and the Cmax [3] was 23 ng/mL. The T1/2 [3] was 2.0 h, the Tmax [3] was 0.76 h and the AUC ([3]; iv) was 231 ng·h/mL. For the same compound, the Cmax ([3]; iv) was 145 ng/mL, the T1/2 ([3]; iv) was 1.8 h and the AUC ([3]; po) was 4.2 ng·h/mL. For the same compound, the Cmax ([3]; po) was 1.2 ng/mL, the T1/2 ([3]; po) was 2.0 h and the Tmax ([3]; po) was 0.82 h. The “effect on other neurotransmitter receptors including I2 and 5-HT” value [4] was “Negligible or no effect on other neurotransmitter receptors including I2”, the Ki (alpha-2 adrenoceptors) was 1.6 nM and the IC50 (alpha-2 adrenoceptors) was 1.6 nM. The T1/2 ([5]; iv, 15 ug/kg) was 2.04 h, the Tmax ([5]; iv, 15 ug/kg) was 0.25 h and the T1/2 ([5]; iv, 50 ug/kg) was 1.92 h. The T1/2 ([5]; iv, 150 ug/kg) was 1.83 h, the elimination half-life ([5]; iv) was “approximately 2 hour” and the elimination half-life [5] was “Short elimination half-life (~2 h in humans) improving safety”. For the same compound, the “breathing rate reversal of xylazine sedative effects” value [6] was “Rapid breathing rate reversal of xylazine sedative effects within a few”, the “concentrations of atipamezole for restoring breathing rate” value [6] was 10 to 20 ng/mL and the “increase in heart rate and blood pressure” value [7] was 14-17 mmHg (which may benefit those who are under deep respiratory. For the same compound, the “safety in humans by dose” value [7] was “safe up to 100 mg dose” and the “untoward or Severe Adverse Event (SAE)” value [7] was “At 30-100 mg/dose in human with no major untoward or Severe Adverse”.
